Assay results taken from patent US12662489B2 (Sitryx Therapeutics Limited, priority 2023, dated 2026).

Assays:
human CD4+ T cells = experiment: Human CD4+ T-cell proliferation assay (CFSE, CD3/28 beads); settings: read-out: Proliferation IC50
Procedure: Cells were incubated at room temperature for 8 minutes in a rotator in the dark. 13 mL cRPMI was added to each tube and cells were centrifuged at 500×g for 4 minutes at room temperature before pellets were resuspended in 10 mL cRPMI. Cells were counted using the Auto2000 Cellometer and AO/PI viability stain and concentration adjusted to 0.6×10^6 cells/mL in cRPMI. […] Control wells were included for flow cytometry and edge wells were filled with 200 μL 1×dPBS. Cells were incubated at 37° C., 5% CO2 for 2 days before compound treatment. […] Cells were incubated at 37° C., 5% CO2 for a further 2 days prior to flow staining and supernatant harvest.
On the final day plates were centrifuged at 500×g for 4 minutes at room temperature. 125 μL of supernatants were transferred to a V bottom 96 well polystyrene plate and stored at −80° C. Plates were gently vortexed to disrupt the cell pellets before 125 μL 1×PBS was added to each well. Plates were centrifuged at 500×g for 4 minutes at room temperature and supernatants removed from the plates by aspirating. Plates were gently vortexed and 30 μL of live/dead stain (Invitrogen, L34975) in 1×dPBS was added and incubated for 15 minutes in the dark at 4° C. […] 100 μL of flow cytometry buffer was added and plates were centrifuged at 500×g for 4 minutes before supernatants were aspirated from the plates. Wells were resuspended in 200 μL flow cytometry buffer and plates stored at 4° C. before being run on the flow cytometer.
Data was analysed using FlowJo and the compensation matrix applied to all samples. The gates were set using unstained and unstimulated samples.

[1] = target: T1, MTHFD2 recombinant human enzyme (Homo sapiens, UniProt P13995); experiment: MTHFD2 inhibition assay (NAD(P)H-Glo luminescence); settings: for MTHFD1/MTHFD2 IC50 ratio: selectivity of MTHFD2 inhibition over MTHFD1, band
T1 sequence (P13995 36-350): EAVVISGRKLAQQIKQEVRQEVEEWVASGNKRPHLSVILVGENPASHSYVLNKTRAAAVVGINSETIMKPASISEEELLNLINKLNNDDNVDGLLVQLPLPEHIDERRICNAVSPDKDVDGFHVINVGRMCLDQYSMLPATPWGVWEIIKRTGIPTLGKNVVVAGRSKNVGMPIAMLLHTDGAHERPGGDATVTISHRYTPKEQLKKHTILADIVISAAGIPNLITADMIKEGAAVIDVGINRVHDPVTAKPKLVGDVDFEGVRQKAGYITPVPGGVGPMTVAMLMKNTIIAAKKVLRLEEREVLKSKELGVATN

[2] = target: T2, MTHFD1 recombinant human enzyme (Homo sapiens, UniProt P11586); experiment: MTHFD1 inhibition assay (NAD(P)H-Glo luminescence); settings: MTHFD1 IC50, recombinant human enzyme 200 nM, NADP, band
T2 sequence (P11586 2-291 limits assumed): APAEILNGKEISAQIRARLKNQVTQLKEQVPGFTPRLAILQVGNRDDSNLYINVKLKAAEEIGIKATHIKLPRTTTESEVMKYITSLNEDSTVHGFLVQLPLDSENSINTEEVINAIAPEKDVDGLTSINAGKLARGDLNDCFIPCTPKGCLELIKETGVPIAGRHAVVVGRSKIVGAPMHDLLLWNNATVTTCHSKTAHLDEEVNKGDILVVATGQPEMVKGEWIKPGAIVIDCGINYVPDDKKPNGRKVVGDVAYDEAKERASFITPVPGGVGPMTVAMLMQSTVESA

| Compound | IC50 [1] [nM] | MTHFD1/MTHFD2 IC50 ratio [1] | IC50 [2] [nM] | IC50 (human CD4+ T cells) [nM] |
| --- | --- | --- | --- | --- |
| COC[C@H]1CN(c2cc(Cl)c3c4c(c(=O)oc3c2C)CN(C(=O)c2cc(N(C)C)c(C(=O)NS(=O)(=O)N3C5CCC3COC5)cc2F)CC4)CCN1C [Example 322, N-((3-oxa-8-azabicyclo[3.2. 1]octan-8-yl)sulfonyl)-4-(10-chloro-8-((R)-3-(methoxymethyl)-4-methylpiperazin-1-yl)-7-methyl-5-oxo-1,3,4,5-tetrahydro-2H-chromeno[3,4-c]pyridine-3-carbonyl)-2-(dimethylamino)-5-fluorobenzamide] | 1 to 10 | J (>30) | 1000 to 5000 | 30 to 100 |
| COC[C@H]1CN(c2cc(C)c3c4c(c(=O)oc3c2C)CN(C(=O)c2ccc(C(=O)NS(=O)(=O)N3C5CCC3CC5)c(OC)c2F)CC4)CCN1C [Example 157, (R)-N-((7-azabicyclo[2.2.1]heptan-7-yl)sulfonyl)-3-fluoro-2-methoxy-4-(8-(3-(methoxymethyl)-4-methylpiperazin-1-yl)-7,10-dimethyl-5-oxo-1,3,4,5-tetrahydro-2H-chromeno[3,4-c]pyridine-3-carbonyl)benzamide] | 10 to 100 | H (>9.0 to 30) | 100 to 1000 | 30 to 100 |
| [2H]C([2H])([2H])Oc1cc(C(=O)N2CCc3c(c(=O)oc4c(C)c(N5CCN(C)[C@@H](COC)C5)cc(Cl)c34)C2)c(F)cc1C(=O)NS(=O)(=O)N1C2CCC1CC2 [Example 326, (R)-N-((7-azabicyclo[2.2.1]heptan-7-yl)sulfonyl)-4-(10-chloro-8-(3-(methoxymethyl)-4-methylpiperazin-1-yl)-7-methyl-5-oxo-1,3,4,5-tetrahydro-2H-chromeno[3,4-c]pyridine-3-carbonyl)-5-fluoro-2-(methoxy-d3)benzamide] | 1 to 10 | J (>30) | 1000 to 5000 | 100 to 1000 |
| COC[C@H]1CN(c2ccc3c4c(c(=O)oc3c2C)CN(C(=O)c2ccc(C(=O)NS(=O)(=O)N(C)C)c(OC3CCC3)c2F)CC4)CCN1C [Example 50, (R)-2-cyclobutoxy-N-(N,N-dimethylsulfamoyl)-3-fluoro-4-(8-(3-(methoxymethyl)-4-methylpiperazin-1-yl)-7-methyl-5-oxo-1,3,4,5-tetrahydro-2H-chromeno[3,4-c]pyridine-3-carbonyl)benzamide] | 1 to 10 | F (<3) | 1 to 10 | 1 to 10 |
| COC[C@H]1CN(c2cc(Cl)c3c4c(c(=O)oc3c2C)CN(C(=O)c2cc(OC)c(C(=O)NS(=O)(=O)N3C5CCC3CC5)cc2F)CC4)CCN1C [Example 324, (R)-N-((7-azabicyclo[2.2.1]heptan-7-yl)sulfonyl)-4-(10-chloro-8-(3-(methoxymethyl)-4-methylpiperazin-1-yl)-7-methyl-5-oxo-1,3,4,5-tetrahydro-2H-chromeno[3,4-c]pyridine-3-carbonyl)-5-fluoro-2-methoxybenzamide] | 10 to 100 | J (>30) | 100 to 1000 | 100 to 1000 |
| COC[C@H]1CN(c2cc(C)c3c4c(c(=O)oc3c2C)CN(C(=O)c2cc(N(C)C)c(C(=O)NS(=O)(=O)N3CC5(CCC5)C3)cc2F)CC4)CCN1C [Example 253, (R)-N-((2-azaspiro[3.3]heptan-2-yl)sulfonyl)-2-(dimethylamino)-5-fluoro-4-(8-(3-(methoxymethyl)-4-methylpiperazin-1-yl)-7,10-dimethyl-5-oxo-1,3,4,5-tetrahydro-2H-chromeno[3,4-c]pyridine-3-carbonyl)benzamide] | 1 to 10 | J (>30) | 100 to 1000 | 10 to 30 |
| CCOc1cc(C(=O)N2CCc3c(c(=O)oc4c(C)c(N5CCN(C)[C@@H](COC)C5)cc(C)c34)C2)c(F)cc1C(=O)NS(=O)(=O)N1CCC(C)(C)C1 [Example 217, (R)-N-((3,3-dimethylpyrrolidin-1-yl)sulfonyl)-2-ethoxy-5-fluoro-4-(8-(3-(methoxymethyl)-4-methylpiperazin-1-yl)-7,10-dimethyl-5-oxo-1,3,4,5-tetrahydro-2H-chromeno[3,4-c]pyridine-3-carbonyl)benzamide] | 10 to 100 | G (^ 3 to 9.0) | 100 to 1000 | 10 to 30 |
| COC[C@H]1CN(c2cc(Cl)c3c4c(c(=O)oc3c2C)CN(C(=O)c2cc(OC)c(C(=O)NS(=O)(=O)N3CC5CC5C3)cc2F)CC4)CCN1C (stereo partly drawn) [Example 325, N-((3-azabicyclo[3.1.0]hexan-3-yl)sulfonyl)-4-(10-chloro-8-((R)-3-(methoxymethyl)-4-methylpiperazin-1-yl)-7-methyl-5-oxo-1,3,4,5-tetrahydro-2H-chromeno[3,4-c]pyridine-3-carbonyl)-5-fluoro-2-methoxybenzamide] | 1 to 10 | J (>30) | 100 to 1000 | 100 to 1000 |

The next lines start with results.

| IC50 [1] [nM] | MTHFD1/MTHFD2 IC50 ratio [1] | IC50 [2] [nM] | Compound | IC50 (human CD4+ T cells) [nM] |
| --- | --- | --- | --- | --- |
| 1 to 10 | F (<3) | 1 to 10 | CCOc1c(C(=O)N2CCc3c(c(=O)oc4c(C)c(N5CCN(C)[C@@H](COC)C5)cc(C)c34)C2)ccc(C(=O)NS(=O)(=O)N2CCCC2)c1F [Example 223, (R)-3-ethoxy-2-fluoro-4-(8-(3-(methoxymethyl)-4-methylpiperazin-1-yl)-7,10-dimethyl-5-oxo-1,3,4,5-tetrahydro-2H-chromeno[3,4-c]pyridine-3-carbonyl)-N-(pyrrolidin-1-ylsulfonyl)benzamide] | 1 to 10 |
| 10 to 100 | H (>9.0 to 30) | 100 to 1000 | COC[C@H]1CN(c2cc(C)c3c4c(c(=O)oc3c2C)CN(C(=O)c2ccc(C(=O)NS(=O)(=O)C3(C)CC3)c(N(C)C)c2F)CC4)CCN1C [Example 136, (R)-2-(dimethylamino)-3-fluoro-4-(8-(3-(methoxymethyl)-4-methylpiperazin-1-yl)-7,10-dimethyl-5-oxo-1,3,4,5-tetrahydro-2H-chromeno[3,4-c]pyridine-3-carbonyl)-N-((1-methylcyclopropyl)sulfonyl)benzamide] | 30 to 100 |
| 10 to 100 | G (^ 3 to 9.0) | 100 to 1000 | COC[C@H]1CN(c2cc(C)c3c4c(c(=O)oc3c2C)CN(C(=O)c2ccc(C(=O)NS(=O)(=O)N3CCCC3)c(OC(F)F)c2F)CC4)CCN1C [Example 171, (R)-2-(difluoromethoxy)-3-fluoro-4-(8-(3-(methoxymethyl)-4-methylpiperazin-1-yl)-7,10-dimethyl-5-oxo-1,3,4,5-tetrahydro-2H-chromeno[3,4-c]pyridine-3-carbonyl)-N-(pyrrolidin-1-ylsulfonyl)benzamide] | 100 to 1000 |
| 10 to 100 | J (>30) | 100 to 1000 | COC[C@H]1CN(c2cc(C)c3c4c(c(=O)oc3c2C)CN(C(=O)c2ccc(C(=O)NS(=O)(=O)N3CCCC3)c(Cl)c2F)CC4)CCN1C [Example 178, (R)-2-chloro-3-fluoro-4-(8-(3-(methoxymethyl)-4-methylpiperazin-1-yl)-7,10-dimethyl-5-oxo-1,3,4,5-tetrahydro-2H-chromeno[3,4-c]pyridine-3-carbonyl)-N-(pyrrolidin-1-ylsulfonyl)benzamide] | 100 to 1000 |
| 1 to 10 | J (>30) | 100 to 1000 | [2H]C([2H])([2H])Oc1cc(C(=O)N2CCc3c(c(=O)oc4c(C)c(N5CCN(C)[C@@H](COC)C5)cc(Cl)c34)C2)c(F)cc1C(=O)NS(=O)(=O)N1CCCC1 [Example 246, (R)-4-(10-chloro-8-(3-(methoxymethyl)-4-methylpiperazin-1-yl)-7-methyl-5-oxo-1,3,4,5-tetrahydro-2H-chromeno[3,4-c]pyridine-3-carbonyl)-5-fluoro-2-(methoxy-d3)-N-(pyrrolidin-1-ylsulfonyl)benzamide] | 100 to 1000 |
| 10 to 100 | H (>9.0 to 30) | 100 to 1000 | COC[C@H]1CN(c2cc(C)c3c4c(c(=O)oc3c2C)CN(C(=O)c2ccc(C(=O)NS(=O)(=O)N3CCCC3)c(OC(F)(F)F)c2F)CC4)CCN1C [Example 169, (R)-3-fluoro-4-(8-(3-(methoxymethyl)-4-methylpiperazin-1-yl)-7,10-dimethyl-5-oxo-1,3,4,5-tetrahydro-2H-chromeno[3,4-c]pyridine-3-carbonyl)-N-(pyrrolidin-1-ylsulfonyl)-2-(trifluoromethoxy)benzamide] | 100 to 1000 |
| 1 to 10 | J (>30) | 100 to 1000 | COC[C@H]1CN(c2cc(F)c3c4c(c(=O)oc3c2C)CN(C(=O)c2cc(N(C)C)c(C(=O)NS(=O)(=O)N3CCCC3)cc2F)CC4)CCN1C [Example 308, (R)-2-(dimethylamino)-5-fluoro-4-(10-fluoro-8-(3-(methoxymethyl)-4-methylpiperazin-1-yl)-7-methyl-5-oxo-1,3,4,5-tetrahydro-2H-chromeno[3,4-c]pyridine-3-carbonyl)-N-(pyrrolidin-1-ylsulfonyl)benzamide] | 1 to 10 |
